Laboratory results from PubChem BioAssay AID1963953.
Activity calls are given as the source filed them.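 How the source made its calls: active means compounds cutting recovered intracellular Salmonella colonies below 0.7 of the DMSO level; inactive means the rest.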

System: HeLa infected S. Typhimurium SL1344, CFU, 6 h
Assay: intracellular Salmonella Typhimurium clearance, cell-based, colony forming units, HeLa, SL1344 (AID 1963953)
Details: at 20 µM; stronger effect = lower value

| SMILES | normalized CFU (DMSO = 1) |
| --- | --- |
| CC(=O)N1[C@@H]2CC[C@H]1CC(Nc1nc(NCCc3sc(N)nc3C)nc(N3CCn4ncnc4C3)n1)C2 (stereo not given in full) | 0.97 (inactive) |
| CCC(C)(C)C(=O)C(=O)N1CCCC[C@H]1C(=O)N[C@H](CCc1ccc(OC)cc1)C(=O)N1[C@@H]2CC[C@H]1CC(Nc1nc(NCCc3sc(N)nc3C)nc(N3CCn4ncnc4C3)n1)C2 (stereo not given in full) | 0.31 |
| CCC(C)(C)C(=O)C(=O)N1CCCC[C@H]1C(=O)N[C@H](CCc1ccc(OC)cc1)C(=O)N1[C@@H]2CC[C@H]1CC(Nc1nc(NCCc3ccccc3)nc(N3CCn4ncnc4C3)n1)C2 (stereo not given in full) | 0.47 |
| CS(C)=O | 1 (inactive) |
| CCC(C)(C)C(=O)C(=O)N1CCCC[C@H]1C(=O)N[C@H](CCc1ccc(OC)cc1)C(=O)N1[C@@H]2CC[C@H]1CC(NC(C)=O)C2 (stereo not given in full) | 0.77 (inactive) |
